How the values were obtained:
[1] = Compound was evaluated for its ability to reverse ACPD-induced inhibition of forskolin-stimulated cAMP formation in the human mGluR2 expressing non-neuronal cells.; type: functional
[2] = target: Metabotropic glutamate receptor; assay: Compound was tested for its ability to displace metabotropic glutamate binding to rat brain membranes using [3H]glutamate radioligand.; type: tissue-based, Membrane

Structure (SMILES) | IC50 [1] [µM] | IC50 [2] [µM]
N[C@@H](C[C@@H](CCCC(c1ccccc1)c1ccccc1)C(=O)O)C(=O)O | 171 | 55.3
N[C@@H](CC(CCCC(c1ccccc1)c1ccccc1)C(=O)O)C(=O)O (stereo not given in full) | – | 4.2
N[C@@H](C[C@H](CCCC(c1ccccc1)c1ccccc1)C(=O)O)C(=O)O | 18.1 | 4.1
